Paper PMC5748027, “Computer-aided design of multi-target ligands at A1R, A2AR and PDE10A, key proteins in neurodegenerative diseases” (Journal of Cheminformatics, 2017)

What was measured:
[1] = target: T1, A1 human adenosine receptor (A1R) (Homo sapiens, UniProt P30542); assay: Radioligand binding competition assay, human A1 receptor in transfected CHO cells; settings: for Ki: Cheng-Prusoff approximation; for inhibition at 0.1 µM: 0.1 µM compound, read-out: % displacement at 0.1 μM (A1R)
T1 construct: expressed in transfected cells; host or cells: CHO
T1 sequence (P30542 1-326): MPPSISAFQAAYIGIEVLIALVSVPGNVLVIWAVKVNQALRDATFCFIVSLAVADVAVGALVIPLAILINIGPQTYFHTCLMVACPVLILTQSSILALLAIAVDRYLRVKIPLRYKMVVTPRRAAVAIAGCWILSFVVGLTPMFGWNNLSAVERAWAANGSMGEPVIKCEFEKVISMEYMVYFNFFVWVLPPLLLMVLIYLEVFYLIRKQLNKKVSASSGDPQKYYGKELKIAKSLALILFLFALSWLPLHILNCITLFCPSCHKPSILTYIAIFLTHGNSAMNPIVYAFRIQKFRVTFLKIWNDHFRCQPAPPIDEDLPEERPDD
Description: Pharmacological evaluation was performed in a radioligand binding competition assay, using A1, A2A, A2B, and A3 human receptors expressed in transfected CHO (A1), HeLa (A2A and A3), and HEK-293 (A2B) according to the procedure reported by Bosch et al. [78].

[2] = target: T2, A2A human adenosine receptor (A2AR) (Homo sapiens, UniProt P29274); assay: Radioligand binding competition assay, human A2A receptor in transfected HeLa cells; settings: for % displacement at 0.1 μM (A2AR): 0.1 µM compound; for Ki: Cheng-Prusoff approximation
T2 construct: expressed in transfected cells; host or cells: HeLa
Description: (§1) Bioactivity testing was performed using A1 and A2A human adenosine receptors expressed in transfected CHO (A1) and HeLa (A2A) cells, as well as AD293 cells that were transiently transfected with human PDE10A. Table 1 includes the list of synthesized 4,6-substituted 2-amino-pyridin-3-carbonitriles, along with their Ki values against A1R, A2AR, and IC50 values against PDE10A.
(§2) Pharmacological evaluation was performed in a radioligand binding competition assay, using A1, A2A, A2B, and A3 human receptors expressed in transfected CHO (A1), HeLa (A2A and A3), and HEK-293 (A2B) according to the procedure reported by Bosch et al..

[3] = target: T3, A2B human receptor (A2BR) (Homo sapiens, UniProt P29275); assay: Radioligand binding competition assay, human A2B receptor in transfected HEK-293 cells; settings: 0.1 µM compound; read-out: percentage displacement at 0.1µM (A2BR)
T3 construct: expressed in transfected cells; host or cells: HEK-293
T3 sequence (P29275 1-332): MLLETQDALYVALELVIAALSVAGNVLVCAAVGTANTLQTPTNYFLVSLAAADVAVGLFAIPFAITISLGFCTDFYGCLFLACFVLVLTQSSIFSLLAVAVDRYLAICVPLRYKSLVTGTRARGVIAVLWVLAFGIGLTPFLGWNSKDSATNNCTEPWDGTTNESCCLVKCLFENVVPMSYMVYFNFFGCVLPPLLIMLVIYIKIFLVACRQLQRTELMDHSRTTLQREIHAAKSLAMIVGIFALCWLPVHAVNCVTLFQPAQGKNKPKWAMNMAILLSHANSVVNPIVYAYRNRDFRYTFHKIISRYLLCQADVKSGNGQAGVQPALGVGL
Description: as §2

A3 human receptor (A3R) = target: T4, A3 human receptor (A3R) (Homo sapiens, UniProt P0DMS8); assay: Radioligand binding competition assay, human A3 receptor in transfected HeLa cells; settings: 0.1 µM compound; read-out: percentage displacement at 0.1µM (A3R)
T4 construct: expressed in transfected cells; host or cells: HeLa
T4 sequence (P0DMS8 1-318): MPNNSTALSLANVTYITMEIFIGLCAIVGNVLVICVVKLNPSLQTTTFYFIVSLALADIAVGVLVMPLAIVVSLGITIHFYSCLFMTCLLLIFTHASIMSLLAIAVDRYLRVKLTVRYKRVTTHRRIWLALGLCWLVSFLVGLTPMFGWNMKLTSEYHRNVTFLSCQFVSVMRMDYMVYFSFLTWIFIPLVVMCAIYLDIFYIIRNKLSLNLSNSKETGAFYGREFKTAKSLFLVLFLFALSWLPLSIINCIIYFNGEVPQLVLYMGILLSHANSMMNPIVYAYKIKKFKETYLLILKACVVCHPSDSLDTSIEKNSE
Description: as §2

human PDE10A = target: T5, human PDE10A (Homo sapiens, UniProt Q9Y233); assay: Phosphodiesterase activity, AD293 cells transiently transfected with human PDE10A; format: biochemical; settings: for inhibition at 10 µM: read-out: % inhibition at 10 μM (PDE10A), 10 μM compound; for IC50: mean of 3 experiments in duplicate
T5 construct: expressed in transfected cells; host or cells: AD293 (transient transfection)
Description: as §1
(§3) The activity measurements against the phosphodiesterases PDE7A, PDE7B, PDE9A and PDE10A were performed using AD293 cells that were transiently and separately transfected with human PDE7A, PDE7B, PDE9A, and PDE10A following the procedure described by Shipe et al..

human PDE7A = target: T6, human PDE7A (Homo sapiens, UniProt Q13946); assay: Phosphodiesterase activity, AD293 cells transiently transfected with human PDE7A; format: biochemical; settings: for inhibition at 10 µM: 10 µM compound, read-out: Percentage inhibition at 10µM (PDE7A)
T6 construct: expressed in transfected cells; host or cells: AD293 (transient transfection)
Description: as §3

human PDE7B = target: T7, human PDE7B (Homo sapiens, UniProt Q9NP56); assay: Phosphodiesterase activity, AD293 cells transiently transfected with human PDE7B; format: biochemical; settings: for inhibition at 10 µM: 10 µM compound, read-out: Percentage inhibition at 10µM (PDE7B)
T7 construct: expressed in transfected cells; host or cells: AD293 (transient transfection)
Description: as §3

human PDE9A = target: T8, human PDE9A (Homo sapiens, UniProt O76083); assay: Phosphodiesterase activity, AD293 cells transiently transfected with human PDE9A; format: biochemical; settings: 10 µM compound; read-out: Percentage inhibition at 10µM (PDE9A)
T8 construct: expressed in transfected cells; host or cells: AD293 (transient transfection)
Description: as §3

T7 sequence (Q9NP56 whole entry): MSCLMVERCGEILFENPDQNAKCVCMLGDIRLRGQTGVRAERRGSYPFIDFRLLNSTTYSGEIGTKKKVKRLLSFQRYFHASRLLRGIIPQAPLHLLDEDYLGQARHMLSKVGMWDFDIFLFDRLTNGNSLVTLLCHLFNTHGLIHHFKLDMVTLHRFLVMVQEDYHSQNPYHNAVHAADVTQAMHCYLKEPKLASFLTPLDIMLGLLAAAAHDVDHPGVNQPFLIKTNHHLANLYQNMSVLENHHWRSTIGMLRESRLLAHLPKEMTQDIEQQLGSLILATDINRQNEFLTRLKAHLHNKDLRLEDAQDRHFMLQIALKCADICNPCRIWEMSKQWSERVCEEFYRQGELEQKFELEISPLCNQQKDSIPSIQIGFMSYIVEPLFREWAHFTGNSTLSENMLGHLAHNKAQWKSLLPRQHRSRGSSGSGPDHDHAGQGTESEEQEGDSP
T8 sequence (O76083 whole entry): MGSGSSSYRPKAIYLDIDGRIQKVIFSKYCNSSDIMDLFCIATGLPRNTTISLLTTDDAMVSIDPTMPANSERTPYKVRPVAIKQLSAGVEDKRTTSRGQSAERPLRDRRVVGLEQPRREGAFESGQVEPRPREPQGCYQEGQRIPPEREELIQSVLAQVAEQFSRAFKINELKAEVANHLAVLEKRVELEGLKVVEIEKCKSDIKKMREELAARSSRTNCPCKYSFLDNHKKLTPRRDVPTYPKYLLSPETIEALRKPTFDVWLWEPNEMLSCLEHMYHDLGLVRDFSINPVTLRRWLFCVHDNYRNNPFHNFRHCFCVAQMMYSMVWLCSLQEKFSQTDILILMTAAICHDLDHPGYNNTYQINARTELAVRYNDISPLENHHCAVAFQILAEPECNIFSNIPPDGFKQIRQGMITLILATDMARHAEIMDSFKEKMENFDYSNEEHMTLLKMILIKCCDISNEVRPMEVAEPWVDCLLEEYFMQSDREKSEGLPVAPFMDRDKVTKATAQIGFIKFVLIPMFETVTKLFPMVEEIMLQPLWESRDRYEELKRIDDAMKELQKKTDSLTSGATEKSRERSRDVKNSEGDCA
T2 sequence (P29274 whole entry): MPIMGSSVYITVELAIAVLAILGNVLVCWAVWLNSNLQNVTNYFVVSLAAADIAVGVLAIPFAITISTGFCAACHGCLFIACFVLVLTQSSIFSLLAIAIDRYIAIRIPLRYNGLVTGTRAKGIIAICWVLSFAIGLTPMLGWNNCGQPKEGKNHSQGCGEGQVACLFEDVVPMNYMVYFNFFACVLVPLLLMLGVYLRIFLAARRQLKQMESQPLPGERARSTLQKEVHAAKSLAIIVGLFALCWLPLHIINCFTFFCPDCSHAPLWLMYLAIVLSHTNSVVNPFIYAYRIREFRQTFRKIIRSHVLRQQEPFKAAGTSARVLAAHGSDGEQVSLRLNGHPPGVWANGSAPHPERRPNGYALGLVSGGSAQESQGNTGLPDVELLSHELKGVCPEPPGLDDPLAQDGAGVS
T6 sequence (Q13946 whole entry): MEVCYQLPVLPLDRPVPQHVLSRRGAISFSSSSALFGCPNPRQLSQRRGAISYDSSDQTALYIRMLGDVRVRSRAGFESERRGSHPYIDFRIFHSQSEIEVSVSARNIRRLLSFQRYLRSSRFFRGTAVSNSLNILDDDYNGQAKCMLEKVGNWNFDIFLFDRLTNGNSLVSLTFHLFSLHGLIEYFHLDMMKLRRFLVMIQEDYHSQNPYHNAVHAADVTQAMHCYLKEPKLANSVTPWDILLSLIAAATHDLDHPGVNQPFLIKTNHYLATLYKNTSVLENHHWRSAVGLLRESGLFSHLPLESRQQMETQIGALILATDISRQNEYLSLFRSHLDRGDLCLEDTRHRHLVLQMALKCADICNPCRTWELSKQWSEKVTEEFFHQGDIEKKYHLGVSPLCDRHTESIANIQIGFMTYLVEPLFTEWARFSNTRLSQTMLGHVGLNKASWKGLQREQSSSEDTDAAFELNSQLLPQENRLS
T5 sequence (Q9Y233 267-1055 limits assumed): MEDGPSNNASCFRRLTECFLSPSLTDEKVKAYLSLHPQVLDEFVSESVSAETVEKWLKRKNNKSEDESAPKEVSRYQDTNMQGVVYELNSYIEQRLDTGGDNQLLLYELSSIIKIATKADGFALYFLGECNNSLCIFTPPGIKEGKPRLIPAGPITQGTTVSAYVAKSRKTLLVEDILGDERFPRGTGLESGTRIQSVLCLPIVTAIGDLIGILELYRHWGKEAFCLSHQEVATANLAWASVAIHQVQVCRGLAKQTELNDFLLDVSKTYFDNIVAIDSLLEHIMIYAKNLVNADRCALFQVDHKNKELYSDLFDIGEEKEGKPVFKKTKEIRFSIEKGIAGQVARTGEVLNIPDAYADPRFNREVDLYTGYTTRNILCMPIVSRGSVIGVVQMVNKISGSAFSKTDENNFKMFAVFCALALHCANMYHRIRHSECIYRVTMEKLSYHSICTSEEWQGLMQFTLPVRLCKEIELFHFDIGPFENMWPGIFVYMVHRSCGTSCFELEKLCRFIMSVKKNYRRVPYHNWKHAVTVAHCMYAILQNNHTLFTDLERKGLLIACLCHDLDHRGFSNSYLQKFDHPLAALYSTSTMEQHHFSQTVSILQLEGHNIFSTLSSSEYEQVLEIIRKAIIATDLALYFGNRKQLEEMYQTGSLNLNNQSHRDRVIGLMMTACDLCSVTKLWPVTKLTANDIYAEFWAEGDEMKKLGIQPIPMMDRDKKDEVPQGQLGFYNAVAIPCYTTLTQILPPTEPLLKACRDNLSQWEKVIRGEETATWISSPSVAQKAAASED

Row | Structure (SMILES) | Ki [1] [µM] | % displacement at 0.1 μM (A2AR) [2] [%] | inhibition at 0.1 µM [3] [%] | inhibition at 0.1 µM (A3 human receptor (A3R)) [%] | inhibition at 10 µM (human PDE10A) [%] | inhibition at 10 µM (human PDE7A) [%] | inhibition at 10 µM (human PDE7B) [%] | inhibition at 10 µM (human PDE9A) [%] | inhibition at 0.1 µM [1] [%] | IC50 (human PDE10A) [µM] | melting point [°C] | Ki [2] [µM] | IC50 (human PDE7A) [µM] | IC50 (human PDE7B) [µM]
1 | N#Cc1c(-c2ccccc2)cc(-c2ccc(F)cc2)nc1N [Compound 1, 2-amino-6-(4-fluorophenyl)-4-phenylpyridine-3-carbonitrile] | 0.394 ± 0.012 | 32 | 2 | 27 | 22 | 9 | 28 | 1 | – | – | – | – | – | –
2 | N#Cc1c(-c2ccccc2)cc(-c2ccc(O)cc2)nc1N [Compound 2, 2-amino-6-(4-hydroxyphenyl)-4-phenylpyridine-3-carbonitrile] | 0.142 ± 0.007 | 38 | 2 | 2 | 52 | 47 | 39 | 1 | – | – | – | – | – | –
3 | N#Cc1c(-c2ccccc2)cc(-c2nccs2)nc1N [Compound 3, 2-amino-4-phenyl-6-(1,3-thiazol-2-yl)pyridine-3-carbonitrile] | – | 8 | 3 | 6 | – | 24 | 36 | 5 | 12 | 2 ± 0.2 | 154 to 156 | – | – | –
4 | Cn1cccc1-c1cc(-c2ccccc2)c(C#N)c(N)n1 [Compound 4, 2-amino-6-(1-methyl-1H-pyrrol-2-yl)-4-phenylpyridine-3-carbonitrile] | – | 32 | 5 | 13 | – | 50 | 48 | 2 | 26 | 3.6 ± 0.3 | 152 to 153 | – | – | –
5 | COc1ccccc1-c1cc(-c2ccccc2)nc(N)c1C#N [Compound 5, 2-amino-4-(2-methoxyphenyl)-6-phenylpyridine-3-carbonitrile] | – | – | 5 | 26 | 28 | 24 | 30 | 3 | 53 | – | – | 0.543 ± 0.013 | – | –
6 | COc1ccc(-c2cc(-c3ccccc3)nc(N)c2C#N)c(OC)c1 [Compound 6, 2-amino-4-(2,4-dimethoxyphenyl)-6-phenylpyridine-3-carbonitrile] | – | 1 | 1 | 6 | – | 51 | 27 | 1 | 12 | 5.7 ± 0.3 | – | – | – | –
7 | COc1ccc(-c2cc(-c3ccccc3F)nc(N)c2C#N)cc1 [Compound 14, 2-amino-6-(2-fluorophenyl)-4-(4-methoxyphenyl)pyridine-3-carbonitrile] | 0.108 ± 0.006 | 30 | 1 | 27 | 10 | 22 | 20 | 7 | – | – | – | – | – | –
8 | COc1ccc(-c2cc(-c3ccccc3C)nc(N)c2C#N)cc1 [Compound 15, 2-amino-4-(4-methoxyphenyl)-6-(2-methylphenyl)pyridine-3-carbonitrile] | – | 32 | 4 | 17 | – | 57 | 55 | 16 | 6 | 1.5 ± 0.2 | – | – | – | –
9 | COc1ccc(-c2cc(-c3ccco3)nc(N)c2C#N)cc1 [Compound 16, 2-amino-6-(furan-2-yl)-4-(4-methoxyphenyl)pyridine-3-carbonitrile] | – | – | 33 | 21 | – | – | 30 | 2 | – | 3.2 ± 0.4 | 205 to 207 | – | 3.4 | –
10 | COc1ccc(-c2cc(-c3ccc(O)cc3)nc(N)c2C#N)cc1 [Compound 17, 2-amino-6-(4-hydroxyphenyl)-4-(4-methoxyphenyl)pyridine-3-carbonitrile] | – | 29 | 1 | 8 | 65 | – | 44 | 7 | 46 | – | – | – | 3.5 | –
11 | COc1ccccc1-c1cc(-c2ccccc2C)nc(N)c1C#N [Compound 20, 2-amino-4-(2-methoxyphenyl)-6-(2-methylphenyl)pyridine-3-carbonitrile] | – | 50 | 3 | 6 | – | 31 | 23 | 12 | 12 | 6.4 ± 0.4 | – | – | – | –
12 | COc1ccccc1-c1cc(-c2ccc(O)cc2)nc(N)c1C#N [Compound 22, 2-amino-6-(4-hydroxyphenyl)-4-(2-methoxyphenyl)pyridine-3-carbonitrile] | – | 1 | 1 | 2 | – | 63 | 16 | 9 | 8 | 5.6 ± 0.5 | – | – | – | –
13 | N#Cc1c(-c2ccco2)cc(-c2ccsc2)nc1N [Compound 25, 2-amino-4-(furan-2-yl)-6-(thiophen-3-yl)pyridine-3-carbonitrile] | – | – | 5 | 2 | – | 48 | – | 14 | 15 | 5.1 ± 0.4 | – | 0.055 ± 0.002 | – | 4.7
